Experiments:
[1] = target: T1, Type-1 angiotensin II receptor (Homo sapiens, UniProt P30556)
T1 sequence (P30556 whole entry): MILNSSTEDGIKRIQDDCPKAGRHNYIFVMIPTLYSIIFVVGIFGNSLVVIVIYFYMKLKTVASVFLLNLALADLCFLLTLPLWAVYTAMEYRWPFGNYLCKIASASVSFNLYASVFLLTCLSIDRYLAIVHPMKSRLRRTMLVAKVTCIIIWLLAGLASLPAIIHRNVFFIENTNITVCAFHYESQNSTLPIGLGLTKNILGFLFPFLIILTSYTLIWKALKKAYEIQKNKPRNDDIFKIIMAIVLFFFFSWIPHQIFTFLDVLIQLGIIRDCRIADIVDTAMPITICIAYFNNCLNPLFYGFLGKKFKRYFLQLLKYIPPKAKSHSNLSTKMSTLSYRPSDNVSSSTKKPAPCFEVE

[2] = target: T2, Gamma-aminobutyric acid receptor subunit alpha-1 (Rattus norvegicus, UniProt P62813)
[3] = target: T2, Gamma-aminobutyric acid receptor subunit alpha-1; remark: listed apart in the source
[4] = target: T3, 5-hydroxytryptamine receptor 3A (Homo sapiens, UniProt P46098); type: functional
T3 sequence (P46098 whole entry): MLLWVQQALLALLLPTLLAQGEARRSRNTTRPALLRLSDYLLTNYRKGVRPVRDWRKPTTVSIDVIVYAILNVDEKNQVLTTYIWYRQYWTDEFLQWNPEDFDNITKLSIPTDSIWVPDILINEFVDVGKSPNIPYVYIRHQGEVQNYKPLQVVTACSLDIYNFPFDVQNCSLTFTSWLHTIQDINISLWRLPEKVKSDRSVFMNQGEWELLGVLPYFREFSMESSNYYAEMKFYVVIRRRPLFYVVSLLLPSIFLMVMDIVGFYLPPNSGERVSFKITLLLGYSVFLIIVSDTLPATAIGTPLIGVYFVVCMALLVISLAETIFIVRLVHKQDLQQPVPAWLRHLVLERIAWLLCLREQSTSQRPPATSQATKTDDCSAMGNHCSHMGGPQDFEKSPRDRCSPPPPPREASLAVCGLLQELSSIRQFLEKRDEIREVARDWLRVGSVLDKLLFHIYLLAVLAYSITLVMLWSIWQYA

[5] = target: T4, Neuropeptide Y receptor type 1 (Homo sapiens, UniProt P25929)
T4 sequence (P25929 whole entry): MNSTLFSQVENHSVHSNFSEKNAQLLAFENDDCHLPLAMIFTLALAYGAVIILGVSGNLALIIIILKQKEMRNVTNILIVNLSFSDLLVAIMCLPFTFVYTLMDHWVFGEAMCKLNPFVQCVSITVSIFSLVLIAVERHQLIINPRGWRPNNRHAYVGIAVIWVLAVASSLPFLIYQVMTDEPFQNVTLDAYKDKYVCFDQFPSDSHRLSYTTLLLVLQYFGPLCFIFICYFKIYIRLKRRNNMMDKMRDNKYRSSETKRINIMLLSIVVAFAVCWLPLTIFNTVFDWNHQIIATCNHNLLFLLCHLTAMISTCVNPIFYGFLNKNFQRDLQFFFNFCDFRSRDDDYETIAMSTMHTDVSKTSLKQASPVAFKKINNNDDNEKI

Thromboxane A2 receptor = target: T5, Thromboxane A2 receptor (Homo sapiens, UniProt P21731)
T5 sequence (P21731 whole entry): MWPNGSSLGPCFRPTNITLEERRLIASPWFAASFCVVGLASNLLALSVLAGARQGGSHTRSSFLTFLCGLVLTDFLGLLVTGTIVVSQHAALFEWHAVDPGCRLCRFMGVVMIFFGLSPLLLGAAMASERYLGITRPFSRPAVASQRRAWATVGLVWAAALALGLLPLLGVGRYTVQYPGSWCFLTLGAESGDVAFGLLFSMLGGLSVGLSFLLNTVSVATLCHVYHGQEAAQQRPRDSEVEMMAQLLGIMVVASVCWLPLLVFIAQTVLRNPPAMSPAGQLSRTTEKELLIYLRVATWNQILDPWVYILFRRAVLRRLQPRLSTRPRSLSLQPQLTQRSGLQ

[6] = target: Vascular endothelial growth factor receptor 2 (Homo sapiens, UniProt P35968); type: functional
Adenosine receptor A2a = Adenosine receptor A2a (Homo sapiens, UniProt P29274)
[7] = target: T6, Alpha-2A adrenergic receptor (Homo sapiens, UniProt P08913); type: functional, cell-based
T6 sequence (P08913 whole entry): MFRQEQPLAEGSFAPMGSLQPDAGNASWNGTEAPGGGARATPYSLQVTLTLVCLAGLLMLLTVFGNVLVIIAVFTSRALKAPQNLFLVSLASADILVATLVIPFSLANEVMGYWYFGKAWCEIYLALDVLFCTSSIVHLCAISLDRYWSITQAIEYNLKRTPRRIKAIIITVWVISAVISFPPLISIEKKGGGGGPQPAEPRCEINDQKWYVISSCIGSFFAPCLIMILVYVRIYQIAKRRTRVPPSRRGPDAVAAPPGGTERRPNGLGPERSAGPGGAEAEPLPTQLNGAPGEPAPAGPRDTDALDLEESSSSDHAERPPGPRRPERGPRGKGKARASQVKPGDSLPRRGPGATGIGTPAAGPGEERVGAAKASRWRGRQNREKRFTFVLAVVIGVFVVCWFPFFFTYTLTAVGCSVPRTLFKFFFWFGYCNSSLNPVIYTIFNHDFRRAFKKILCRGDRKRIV

[8] = target: T6, Alpha-2A adrenergic receptor; type: functional, cell-based; remark: listed apart in the source
D(1A) dopamine receptor = D(1A) dopamine receptor (Homo sapiens, UniProt P21728); type: functional, cell-based
[9] = target: T7, 5-hydroxytryptamine receptor 2B (Homo sapiens, UniProt P41595); type: functional, cell-based
[10] = target: T7, 5-hydroxytryptamine receptor 2B; type: functional, cell-based; remark: listed apart in the source
Also: assay procedure not described here.

Sequence of Adenosine receptor A2a (P29274 whole entry): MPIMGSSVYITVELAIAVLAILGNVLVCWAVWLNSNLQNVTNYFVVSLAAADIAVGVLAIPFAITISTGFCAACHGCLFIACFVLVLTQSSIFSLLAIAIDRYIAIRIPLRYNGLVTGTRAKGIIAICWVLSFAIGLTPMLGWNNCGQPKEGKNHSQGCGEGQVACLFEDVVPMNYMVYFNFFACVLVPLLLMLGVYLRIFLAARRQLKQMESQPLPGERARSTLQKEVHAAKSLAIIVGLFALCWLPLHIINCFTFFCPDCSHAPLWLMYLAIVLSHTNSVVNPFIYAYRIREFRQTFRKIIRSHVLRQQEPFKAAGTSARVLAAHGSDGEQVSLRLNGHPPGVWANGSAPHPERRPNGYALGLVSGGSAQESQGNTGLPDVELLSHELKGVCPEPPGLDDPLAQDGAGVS
Sequence of D(1A) dopamine receptor (P21728 whole entry): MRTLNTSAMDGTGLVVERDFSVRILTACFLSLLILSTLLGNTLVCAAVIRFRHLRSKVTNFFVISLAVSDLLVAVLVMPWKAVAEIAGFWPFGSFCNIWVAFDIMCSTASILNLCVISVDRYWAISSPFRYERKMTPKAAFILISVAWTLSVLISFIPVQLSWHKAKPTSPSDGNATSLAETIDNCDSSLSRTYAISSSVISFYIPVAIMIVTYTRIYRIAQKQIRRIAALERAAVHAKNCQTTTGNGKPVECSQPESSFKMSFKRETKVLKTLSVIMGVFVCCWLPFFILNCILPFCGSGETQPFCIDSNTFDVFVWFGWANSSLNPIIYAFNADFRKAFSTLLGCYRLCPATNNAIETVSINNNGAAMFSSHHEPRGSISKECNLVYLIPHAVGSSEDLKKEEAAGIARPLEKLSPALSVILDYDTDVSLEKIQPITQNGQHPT
T7 sequence (P41595 whole entry): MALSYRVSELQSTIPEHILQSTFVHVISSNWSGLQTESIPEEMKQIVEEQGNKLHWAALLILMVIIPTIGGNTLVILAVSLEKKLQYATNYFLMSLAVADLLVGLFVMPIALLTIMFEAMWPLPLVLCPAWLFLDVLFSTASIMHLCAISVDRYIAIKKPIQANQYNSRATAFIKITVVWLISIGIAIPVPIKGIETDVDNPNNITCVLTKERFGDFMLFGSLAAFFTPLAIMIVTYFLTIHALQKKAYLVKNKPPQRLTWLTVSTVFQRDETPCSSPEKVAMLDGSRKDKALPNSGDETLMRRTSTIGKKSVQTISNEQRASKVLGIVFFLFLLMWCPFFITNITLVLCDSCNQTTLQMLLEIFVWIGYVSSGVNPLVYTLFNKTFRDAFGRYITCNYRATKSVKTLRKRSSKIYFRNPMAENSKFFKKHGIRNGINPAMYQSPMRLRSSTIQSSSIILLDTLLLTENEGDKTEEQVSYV
T2 sequence (P62813 whole entry): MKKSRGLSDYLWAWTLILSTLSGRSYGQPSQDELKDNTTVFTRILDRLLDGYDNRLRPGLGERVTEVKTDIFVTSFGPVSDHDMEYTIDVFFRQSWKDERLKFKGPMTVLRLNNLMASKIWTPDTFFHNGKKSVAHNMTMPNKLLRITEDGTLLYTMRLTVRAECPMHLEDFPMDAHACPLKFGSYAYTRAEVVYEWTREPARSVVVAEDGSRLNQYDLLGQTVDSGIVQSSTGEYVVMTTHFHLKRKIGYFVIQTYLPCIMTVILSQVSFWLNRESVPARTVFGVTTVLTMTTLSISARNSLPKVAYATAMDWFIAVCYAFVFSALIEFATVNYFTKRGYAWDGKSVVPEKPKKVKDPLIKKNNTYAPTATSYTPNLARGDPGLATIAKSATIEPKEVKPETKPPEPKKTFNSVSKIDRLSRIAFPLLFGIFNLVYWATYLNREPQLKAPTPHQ
Sequence of Vascular endothelial growth factor receptor 2 (P35968 whole entry): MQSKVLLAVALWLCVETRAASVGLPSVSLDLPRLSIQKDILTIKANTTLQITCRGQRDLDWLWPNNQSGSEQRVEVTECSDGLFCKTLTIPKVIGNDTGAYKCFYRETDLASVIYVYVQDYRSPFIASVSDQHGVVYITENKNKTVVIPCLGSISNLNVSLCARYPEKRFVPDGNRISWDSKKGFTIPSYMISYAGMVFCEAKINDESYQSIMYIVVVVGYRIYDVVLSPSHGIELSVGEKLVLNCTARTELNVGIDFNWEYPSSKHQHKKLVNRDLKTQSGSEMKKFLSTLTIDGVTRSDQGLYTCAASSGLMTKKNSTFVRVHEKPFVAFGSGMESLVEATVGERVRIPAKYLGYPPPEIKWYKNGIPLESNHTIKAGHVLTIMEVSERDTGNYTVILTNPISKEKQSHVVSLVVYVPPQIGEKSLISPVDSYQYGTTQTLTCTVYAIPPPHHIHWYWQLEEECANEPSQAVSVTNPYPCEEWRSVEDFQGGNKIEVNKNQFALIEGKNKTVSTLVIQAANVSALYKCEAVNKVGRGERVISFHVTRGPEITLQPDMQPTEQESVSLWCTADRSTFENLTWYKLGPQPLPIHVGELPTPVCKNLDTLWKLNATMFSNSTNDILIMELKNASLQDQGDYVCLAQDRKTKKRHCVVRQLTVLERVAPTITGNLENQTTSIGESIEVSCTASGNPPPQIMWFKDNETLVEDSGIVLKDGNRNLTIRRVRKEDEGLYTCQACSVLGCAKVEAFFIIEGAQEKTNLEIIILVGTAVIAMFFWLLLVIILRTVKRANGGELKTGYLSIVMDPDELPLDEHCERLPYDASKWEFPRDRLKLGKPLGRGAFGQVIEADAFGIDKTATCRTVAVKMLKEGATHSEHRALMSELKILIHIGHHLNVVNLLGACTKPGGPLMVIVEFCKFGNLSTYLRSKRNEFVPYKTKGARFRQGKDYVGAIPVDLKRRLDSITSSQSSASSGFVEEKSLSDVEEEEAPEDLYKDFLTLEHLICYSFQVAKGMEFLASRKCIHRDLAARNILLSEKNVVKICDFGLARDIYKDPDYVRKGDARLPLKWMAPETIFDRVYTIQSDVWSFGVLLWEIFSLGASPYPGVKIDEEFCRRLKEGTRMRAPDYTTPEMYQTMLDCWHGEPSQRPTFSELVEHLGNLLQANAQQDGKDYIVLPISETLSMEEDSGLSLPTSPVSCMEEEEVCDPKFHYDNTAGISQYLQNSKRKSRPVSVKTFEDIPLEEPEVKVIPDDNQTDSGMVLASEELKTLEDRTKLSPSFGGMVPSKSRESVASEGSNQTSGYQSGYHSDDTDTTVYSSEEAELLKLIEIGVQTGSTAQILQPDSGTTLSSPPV

## C[C@]1(COc2ccc(N3CCC(Oc4ccc(OC(F)(F)F)cc4)CC3)cc2)Cn2cc([N+](=O)[O-])nc2O1
[1]
  AC50: > 30 µM
[2]
  AC50: > 10 µM
[3]
  AC50: > 30 µM
[4]
  AC50: > 10 µM
[5]
  AC50: > 30 µM
Thromboxane A2 receptor
  AC50: > 30 µM

## CC(C1=C(CCN(C)C)Cc2ccccc21)c1ccccn1 (stereo not given)
[3]
  AC50: > 30 µM
[6]
  AC50: > 30 µM

## CC(=O)OC(C)OC(=O)C(C)c1ccc(-c2ccccc2)c(F)c1 (stereo not given)
[3]
  AC50: > 30 µM
[6]
  AC50: > 30 µM

## CC(=O)OCC[N+](C)(C)C [ACETYLCHOLINE]
Adenosine receptor A2a
  AC50: > 30 µM
[7]
  AC50: > 10 µM
[8]
  AC50: > 10 µM
[1]
  AC50: > 30 µM
D(1A) dopamine receptor
  AC50: > 10 µM
[2]
  AC50: > 10 µM
[3]
  AC50: > 30 µM
[9]
  AC50: > 10 µM
[10]
  AC50: > 10 µM
[4]
  AC50: > 10 µM
[5]
  AC50: > 30 µM
Thromboxane A2 receptor
  AC50: > 30 µM

## C[C@H](N)C(=O)O [ALANINE]
[3]
  AC50: > 30 µM
[6]
  AC50: > 30 µM

## O=C1c2c(O)cccc2Cc2cccc(O)c21 [ANTHRALIN]
[3]
  AC50: > 3 µM
[6]
  AC50: 6.14 µM

## CNC(=O)C[C@@H](N)C(=O)N[C@@H](C(=O)N[C@@H]1C(=O)N2[C@@H]1SC(C)(C)[C@@H]2C(=O)O)c1ccc(O)cc1 [ASPOXICILLIN]
[3]
  AC50: > 30 µM

## O=C(Nc1nc(-c2cc(Cl)cs2)c(N2CCN(C3CCCCC3)CC2)s1)c1cnc(N2CCC(C(=O)O)CC2)c(Cl)c1 [AVATROMBOPAG]
Adenosine receptor A2a
  AC50: > 10 µM
[1]
  AC50: > 10 µM
[2]
  AC50: > 10 µM
[3]
  AC50: > 30 µM
[4]
  AC50: > 10 µM
[5]
  AC50: > 10 µM
Thromboxane A2 receptor
  AC50: > 10 µM

## COC(=O)C1=C(C)NC(C)=C(C(=O)O[C@H]2CCN(Cc3ccccc3)C2)[C@H]1c1cccc([N+](=O)[O-])c1 [BARNIDIPINE]
[3]
  AC50: > 30 µM
[6]
  AC50: > 30 µM

## C[C@@H](O)[C@H]1C(=O)N2C(C(=O)[O-])=C(SC3Cn4cnc[n+]4C3)[C@H](C)[C@H]12 (stereo not given in full) [BIAPENEM]
[3]
  AC50: > 30 µM

## CCCCOc1ccc(CC(=O)NO)cc1 [BUFEXAMAC]
[3]
  AC50: > 30 µM
[6]
  AC50: > 30 µM

## Cc1nnc(SCC2=C(C(=O)O)N3C(=O)[C@@H](NC(=O)Cn4cc(Cl)c(=O)c(Cl)c4)[C@H]3SC2)s1 [CEFAZEDONE]
[3]
  AC50: > 30 µM
[6]
  AC50: 10.1 µM

## CO[C@@]1(NC(=O)CSCC#N)C(=O)N2C(C(=O)O)=C(CSc3nnnn3C)CS[C@@H]21 [CEFMETAZOLE]
[7]
  AC50: > 30 µM
[8]
  AC50: > 30 µM
D(1A) dopamine receptor
  AC50: > 30 µM
[3]
  AC50: > 30 µM
[9]
  AC50: > 30 µM
[10]
  AC50: > 30 µM
[4]
  AC50: > 30 µM

## CO/N=C(\C(=O)N[C@@H]1C(=O)N2C(C(=O)[O-])=C(C[n+]3cccc4c3CCC4)CS[C@H]12)c1csc(N)n1 [CEFPIROME]
[7]
  AC50: > 30 µM
[8]
  AC50: > 30 µM
D(1A) dopamine receptor
  AC50: > 30 µM
[2]
  AC50: > 30 µM
[3]
  AC50: > 30 µM
[9]
  AC50: > 30 µM
[10]
  AC50: > 30 µM
[4]
  AC50: > 30 µM

## Nc1ncnc(Nc2ccc(Cl)cc2)n1 [CHLORAZANIL]
[3]
  AC50: > 30 µM
[6]
  AC50: 15 µM

## CC[C@H]1OC(=O)[C@H](C)[C@@H](O[C@H]2C[C@@](C)(OC)[C@@H](O)[C@H](C)O2)[C@H](C)[C@@H](O[C@@H]2O[C@H](C)C[C@H](N(C)C)[C@H]2O)[C@](C)(OC)C[C@@H](C)C(=O)[C@H](C)[C@@H](O)[C@]1(C)O [CLARITHROMYCIN]
Adenosine receptor A2a
  AC50: > 30 µM
[7]
  AC50: > 30 µM
[8]
  AC50: > 30 µM
[1]
  AC50: > 30 µM
D(1A) dopamine receptor
  AC50: > 30 µM
[3]
  AC50: > 30 µM
[9]
  AC50: > 30 µM
[10]
  AC50: > 30 µM
[5]
  AC50: > 30 µM
Thromboxane A2 receptor
  AC50: > 30 µM

## CCC[C@@H]1C[C@@H](C(=O)N[C@@H]([C@H]2O[C@H](SC)[C@H](OP(=O)(O)O)[C@@H](O)[C@H]2O)[C@H](C)Cl)N(C)C1 [CLINDAMYCIN PHOSPHATE]
[3]
  AC50: > 30 µM
[6]
  AC50: > 30 µM

## Oc1c(I)cc(Cl)c2cccnc12 [CLIOQUINOL]
[7]
  AC50: > 30 µM
[8]
  AC50: > 30 µM
D(1A) dopamine receptor
  AC50: > 30 µM
[2]
  AC50: > 30 µM
[3]
  AC50: > 30 µM
[9]
  AC50: > 30 µM
[10]
  AC50: > 30 µM
[4]
  AC50: > 30 µM

## C[C@@H]1C[C@H]2[C@@H]3C[C@H](F)C4=CC(=O)C=C[C@]4(C)[C@@]3(Cl)[C@@H](O)C[C@]2(C)[C@H]1C(=O)COC(=O)C(C)(C)C [CLOCORTOLONE PIVALATE]
[3]
  AC50: > 30 µM

## O=P(O)(O)C(Cl)(Cl)P(=O)(O)O [CLODRONIC ACID]
[3]
  AC50: > 30 µM

## O=C(CCCN1CC=C(n2c(=O)[nH]c3ccccc32)CC1)c1ccc(F)cc1 [DROPERIDOL]
[3]
  AC50: > 30 µM
[6]
  AC50: > 30 µM

## CCOC(=O)c1ccc(OC(=O)CCCCCNC(=N)N)cc1 [GABEXATE]
[3]
  AC50: > 30 µM
[6]
  AC50: > 30 µM

## CCCCC/C=C\C/C=C\C/C=C\CCCCC(=O)O [GAMOLENIC ACID]
[3]
  AC50: > 30 µM
[6]
  AC50: > 30 µM

## NC(=O)NCCC[C@H](N)C(=O)O [L-CITRULLINE]
[3]
  AC50: > 30 µM
[6]
  AC50: > 30 µM

## Nc1nc(N)nc(Nc2ccc([As]3SCC(CO)S3)cc2)n1 (stereo not given) [MELARSOPROL]
[3]
  AC50: 21 µM

## CC1(C)S[C@@H]2[C@H](NC(=O)[C@H](NC(=O)N3CCN(S(C)(=O)=O)C3=O)c3ccccc3)C(=O)N2[C@H]1C(=O)O [MEZLOCILLIN]
[3]
  AC50: > 30 µM

## CCC(=O)O[C@@H]1CC(=O)O[C@H](C)C/C=C/C=C/[C@H](OC(C)=O)[C@H](C)C[C@H](CC=O)[C@H](O[C@@H]2O[C@H](C)[C@@H](O[C@H]3C[C@@](C)(OC(C)=O)[C@@H](OC(=O)CC)[C@H](C)O3)[C@H](N(C)C)[C@H]2O)[C@H]1OC [MIOCAMYCIN]
[3]
  AC50: > 30 µM

## COCCCOc1ccnc(C[S+]([O-])c2nc3ccccc3[nH]2)c1C (stereo not given) [RABEPRAZOLE]
Adenosine receptor A2a
  AC50: > 30 µM
[7]
  AC50: > 10 µM
[8]
  AC50: > 10 µM
[1]
  AC50: > 30 µM
D(1A) dopamine receptor
  AC50: > 10 µM
[2]
  AC50: > 10 µM
[3]
  AC50: > 30 µM
[9]
  AC50: > 10 µM
[10]
  AC50: 12 µM
[4]
  AC50: 6 µM
[5]
  AC50: 20.5 µM
Thromboxane A2 receptor
  AC50: 11.4 µM

## O=C(NC(Cc1cc(=O)[nH]c2ccccc12)C(=O)O)c1ccc(Cl)cc1 (stereo not given) [REBAMIPIDE]
[3]
  AC50: > 30 µM

## CCOC(=O)[C@H](CCc1ccccc1)N[C@H]1CS[C@H](c2cccs2)CN(CC(=O)O)C1=O [TEMOCAPRIL]
[3]
  AC50: > 30 µM

Reference: ChEMBL document CHEMBL5291721, “A preclinical secondary pharmacology resource illuminates target-adverse drug reaction associations of marketed drugs” (Nat Commun, 2023)
